Source: patent US20250186475A1, “METHODS OF TREATING MEDICAL CONDITIONS USING ISLATRAVIR OR A RELATED COMPOUND” (ROME Therapeutics, Inc., priority 2022, published 2025)

Tests used:
Assay type in all cases: cell-based
[1] = test system: SW756 cells; test: Cancer cell viability assay with 3D cell colonies (CellTiter-Glo), SW756; conditions: Homo sapiens, SW756, 168 h, 7 days
Experimental: (§1) Ovarian cancer cell line SK-OV-3 cells were cultured in McCoy's 5a media containing 10% FBS. Ovarian cancer cell line OVCAR-8 cells were cultured in RPMI media containing 10% FBS. Additional cancer cell lines were cultured in the following media: • Ovarian cancer SW756 cells—L-15 (100% air)+10% FBS • Esophageal cancer TE-1 cells—RPMI-1640+10% FBS • Esophageal cancer KYSE-410 cells—RPMI-1640+5˜10% FBS • Esophageal cancer KYSE-70 cells—RPMI-1640+10% h.i.FBS. • Pharyngeal cancer FaDu cells—MEM+0.01 mM NEAA+10% FBS
(§2) Cell colony formation was tested using a 3D methylcellulose-based CellTiter-Glo (CTG) viability assay (Cat. No: G7573, Promega). Briefly, cells were inoculated into 96-well plates (at 1,500 cells per well) into a solution of 0.65% methylcellulose in growth media and incubated overnight at 37° C. in 5% CO2. The next day, serially diluted test compound (islatravir) or positive control (cisplatin, Cat. No. 6J015A89, Qilu Pharma) were added at the indicated concentrations, and the cells were incubated for 7 days. On day seven, 100 μL of CTG reagent was added, and the plates were incubated at room temperature for 20 min. Luminescence was read on an Envision Multi Label Reader according to manufacturer's instructions. IC50 values were determined using the following calculation: […]

[2] = test system: KYSE-70 cells; test: Cancer cell viability assay with 3D cell colonies (CellTiter-Glo), KYSE-70; conditions: Homo sapiens, KYSE-70, 168 h, 7 days
Experimental: as §1, §2

[3] = test system: FaDu cells; test: Cancer cell viability assay with 3D cell colonies (CellTiter-Glo), FaDu; conditions: Homo sapiens, FaDu, 168 h, 7 days
Experimental: as §1, §2

[4] = molecular target: T1, LINE1 reverse transcriptase (Homo sapiens, UniProt O00370); test: Transient artificial-intron Cis LINE1 reporter assay; conditions: HEK 293 cells, FLuc/RLuc ratio, read-out: IC50 for inhibition of FLuc luminescence
T1 construct: expressed in transfected cells
T1 sequence (O00370 whole entry, looked up): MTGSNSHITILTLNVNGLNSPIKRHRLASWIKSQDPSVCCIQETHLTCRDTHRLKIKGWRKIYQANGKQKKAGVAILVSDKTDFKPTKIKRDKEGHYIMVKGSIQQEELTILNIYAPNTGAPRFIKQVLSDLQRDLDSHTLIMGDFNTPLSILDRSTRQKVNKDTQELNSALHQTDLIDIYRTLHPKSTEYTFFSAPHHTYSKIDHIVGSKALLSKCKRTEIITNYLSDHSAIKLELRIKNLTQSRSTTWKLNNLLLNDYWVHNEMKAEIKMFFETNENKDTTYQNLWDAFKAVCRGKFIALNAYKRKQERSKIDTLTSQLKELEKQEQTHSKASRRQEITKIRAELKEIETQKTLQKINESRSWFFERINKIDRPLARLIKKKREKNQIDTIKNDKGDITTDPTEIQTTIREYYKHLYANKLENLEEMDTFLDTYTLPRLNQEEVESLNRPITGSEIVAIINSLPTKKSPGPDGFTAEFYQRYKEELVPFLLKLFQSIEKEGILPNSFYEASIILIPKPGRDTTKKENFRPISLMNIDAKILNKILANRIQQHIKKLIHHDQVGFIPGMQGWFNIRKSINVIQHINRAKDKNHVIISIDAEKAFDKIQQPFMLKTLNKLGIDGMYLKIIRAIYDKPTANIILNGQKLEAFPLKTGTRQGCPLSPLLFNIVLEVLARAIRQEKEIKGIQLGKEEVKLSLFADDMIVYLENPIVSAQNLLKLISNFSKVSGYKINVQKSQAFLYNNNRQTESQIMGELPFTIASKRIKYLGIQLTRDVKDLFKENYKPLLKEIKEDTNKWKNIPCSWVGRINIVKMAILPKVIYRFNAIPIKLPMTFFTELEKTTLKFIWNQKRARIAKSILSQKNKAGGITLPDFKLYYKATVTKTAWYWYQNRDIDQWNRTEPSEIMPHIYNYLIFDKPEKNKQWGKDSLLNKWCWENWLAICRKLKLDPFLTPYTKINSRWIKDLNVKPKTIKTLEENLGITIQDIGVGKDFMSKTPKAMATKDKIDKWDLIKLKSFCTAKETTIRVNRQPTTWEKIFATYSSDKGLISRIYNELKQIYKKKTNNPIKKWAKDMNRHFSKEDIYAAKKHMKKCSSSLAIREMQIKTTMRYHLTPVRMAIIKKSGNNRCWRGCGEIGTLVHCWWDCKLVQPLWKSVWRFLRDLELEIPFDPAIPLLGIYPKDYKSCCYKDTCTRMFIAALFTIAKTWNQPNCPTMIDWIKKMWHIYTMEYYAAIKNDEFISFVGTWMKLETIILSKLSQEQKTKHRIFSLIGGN
Experimental: Intron-disrupted Firefly luciferase (FLuc) expression cassettes were generated as described by Xie, Y. et al. “Characterization of L1 retrotransposition with high-throughput dual-luciferase assays,” Nucleic Acid Res. (2011) Vol. 39, No. 3, e16. In addition, the plasmid contained an intact Renilla luciferase (RLuc) expression cassette on the vector backbone, in order to normalize transfection efficiency and measure potential cell toxicity.
HEK 293 cells were seeded in 96-well plates at 1,000 cells/well in 55 μL and grown for 24 hours. Cells were transfected with FuGeneHD (Promega) following the manufacturer's protocol. Each well received 0.133 ng plasmid, 0.4 μL FuGeneHD reagent, and 4.5 μL GlutaMAX-I-supplemented Opti-MEM I reduced-serum medium (Invitrogen). Cells were simultaneously treated with test compound serially diluted starting at 100 μM in a 3-fold dilution dose response.
Luminescence was measured using the Dual-Glo Luciferase Assay System (Promega) following the manufacturer's instructions. The ratio between FLuc and RLuc gene expression was used to report LINE1 activity.

[5] = test system: IFN-β production in PBMCs; test: Decitabine-stimulated human PBMC assay; conditions: PBMCs with anti-CD3/anti-CD28 and 10 μM decitabine, 5 days
Experimental: EasySep buffer (32 mL, Stem Cell, cat. #20144) was used to dilute 8 mL of LRSC buffy coat (from fresh Leukopak) with gentle mixing. The diluted buffy coat (20 mL) was transferred into each of two SepMate 50 tubes, and the tubes were filled with 15 mL of Lyphoprep (Stem Cell, ct. #07851) density gradient. The SepMate tubes were then centrifuged at […] for 10 minutes at room temperature with the brake on. The top layer of supernatant was collected in SepMate tubes by quickly pouring it into a new 50 mL conical tube. The PBMCs were washed with EasySep buffer x2 by centrifuging at 300G for 5 minutes. The cells were resuspended in 30 mL of EasySep and centrifuged at 100G for 5 minutes with the brake off, and the platelets were removed. The cells were then resuspended in 6 mL of 1×RBC lysis buffer (InvitroGen) and incubated at 37° C. for 5 minutes. Then, 25 mL of EasySep buffer was mixed into the tube and it was centrifuged at 300G for 5 minutes. The cells were resuspended in 10 mL of EasySep buffer and the cells were then counted with Cellometer (AO/PI). The PBMCs were resuspended in RPMI1640 (ThermoFisher)+10% FBS (HyClone)+p/s at 3×10^6/mL. The PBMCs (100 μL, 300 k PBMCs) were then seeded in a 96-well flat bottom microplate (Corning) that had been precoated with 100 μL of anti-CD3 antibody (10 μg/mL in PBS, Biolegend) or PBS at 4° C., one day before the assay was commenced. […]

IC50 [1]: > 30 µM
IC50 [2]: 10 to 30 µM
IC50 [3]: 10 to 30 µM
IC50 [4]: 0.02 µM
SMILES: C#C[C@]1(CO)O[C@@H](n2cnc3c(N)nc(F)nc32)C[C@@H]1O [Islatravir, (2R,3S,5R)-5-(6-amino-2-fluoro-9H-purin-9-yl)-2-ethynyl-2-(hydroxymethyl)tetrahydrofuran-3-ol]
production of IFN-β [5]: activated production of IFN-β
